Test results from patent publication US20250388574A1, “HETEROCYCLIC COMPOUNDS AS TRIGGERING RECEPTOR EXPRESSED ON MYELOID CELLS 2 AGONISTS AND METHODS OF USE” (AMGEN INC., priority 2020, published 2025).
pEC50: −log10 of the molar value.

Biological target: hTREM2 (Homo sapiens, UniProt Q9NZC2)
Assay: Phospho-Syk AlphaScreen/AlphaLISA assay in TREM2 and DAP12 overexpressing HEK293 cells (Example A1)
Type: cell-based
Parameters: expressed in transfected cells
Details: HEK293 cells; for pEC50: read-out: hTREM2 EC50
Procedure, shortened: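 Single-cell-cloned HEK293 stably overexpressing TREM2 and DAP12, plated 20,000 cells/well for 20 h, then exposed to compounds (1% DMSO) 45 min at room temperature. Lysates probed for phospho-Syk by AlphaLISA sandwich (anti-pSyk, biotinylated anti-Syk); signal normalized to percent of control (100 nM anti-TREM2 antibody vs isotype) and fitted by 4-parameter logistic.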

Sequence of hTREM2 (Q9NZC2 19-230): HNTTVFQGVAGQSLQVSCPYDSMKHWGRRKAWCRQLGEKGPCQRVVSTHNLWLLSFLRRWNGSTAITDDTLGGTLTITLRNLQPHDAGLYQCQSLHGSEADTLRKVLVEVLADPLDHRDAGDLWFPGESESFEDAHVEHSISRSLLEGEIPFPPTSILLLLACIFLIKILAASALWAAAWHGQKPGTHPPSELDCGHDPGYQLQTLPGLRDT
Sequence of hTREM2 (O43914 22-113 partner): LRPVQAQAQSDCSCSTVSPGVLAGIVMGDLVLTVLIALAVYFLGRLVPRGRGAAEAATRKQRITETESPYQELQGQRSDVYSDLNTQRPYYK

Row | SMILES | Emax | pEC50
1 | Cc1nc2cc(N3CCO[C@@H](c4ccnc(Cl)c4)C3)nc(-c3ccc(Cl)cc3F)c2c(=O)n1C (single isomer, unassigned) [Example 89] | ++++ (Emax>300) | 6.30 to 7.30
2 | CCn1cc([C@@H]2CN(c3cc4nc(C)n(C)c(=O)c4c(-c4ccc(Cl)cc4F)n3)CCO2)cn1 (single isomer, unassigned) [Example 24] | ++++ (Emax>300) | 6.30 to 7.30
3 | Cc1nc2cc(N3CCC(c4cccnc4)C3)nc(-c3ccc(Cl)cc3F)c2c(=O)n1C (stereo not shown) [Example 121, 5-(4-chloro-2-fluorophenyl)-2,3-dimethyl-7-(3-(3-pyridinyl)-1-pyrrolidinyl)pyrido[4,3-d]pyrimidin-4(3H)-one] | ++++ (Emax>300) | 6.30 to 7.30
4 | CCn1c(C)nc2cc(N3CCO[C@@H](c4cnn(C)c4)C3)nc(-c3ccc(Cl)cc3F)c2c1=O [Example 146, 5-(4-chloro-2-fluorophenyl)-3-ethyl-2-methyl-7-((2S)-2-(1-methyl-1H-pyrazol-4-yl)-4-morpholinyl)pyrido[4,3-d]pyrimidin-4(3H)-one] | ++++ (Emax>300) | > 7.30
5 | Cc1ncc([C@@H]2CN(c3cc4nc(C)n(C)c(=O)c4c(-c4ccc(Cl)cc4F)n3)CCO2)cn1 (single isomer, unassigned) [Example 64] | ++++ (Emax>300) | 6.30 to 7.30
6 | Cc1cc([C@H]2CN(c3cc4nc(C)n(C)c(=O)c4c(-c4ccc(Cl)cc4F)n3)CCO2)cc(C)n1 (single isomer, unassigned) [Example 77] | ++++ (Emax>300) | > 7.30
7 | Cc1nc2cc(N3CCO[C@@H](c4ccncc4)C3)nc(-c3ccc(Cl)cc3F)c2c(=O)n1C (single isomer, unassigned) [Example 49] | ++++ (Emax>300) | > 7.30
8 | Cc1nc2cc(N3CCO[C@H](c4ccncc4)C3)nc(-c3ccc(Cl)cc3F)c2c(=O)n1C (single isomer, unassigned) [Example 48] | +++ (Emax>200 and ≤300) | 5.52 to 6.30

The next lines start with the values.

Row | Emax | pEC50 | SMILES
9 | +++ (Emax>200 and ≤300) | 4.00 to 5.52 | Cc1nc2cc(N3CCc4ncccc4C3)nc(-c3ccc(Cl)cc3F)c2c(=O)n1C [Example 248, 5-(4-chloro-2-fluorophenyl)-7-(7,8-dihydro-1,6-naphthyridin-6(5H)-yl)-2,3-dimethylpyrido[4,3-d]pyrimidin-4(3H)-one]
10 | ++ (Emax>100 and ≤200) | 5.52 to 6.30 | Cc1nc2cc(N3CCO[C@@](C)(C4CC4)C3)nc(-c3ccc(Cl)cc3F)c2c(=O)n1C [Example 219, (S)-5-(4-chloro-2-fluorophenyl)-7-(2-cyclopropyl-2-methylmorpholino)-2,3-dimethylpyrido[4,3-d]pyrimidin-4(3H)-one]
11 | ++++ (Emax>300) | 6.30 to 7.30 | Cc1nc2cc(N3CCO[C@H](c4noc(C5CC5)n4)C3)nc(-c3ccc(Cl)cc3F)c2c(=O)n1C [Example 201, (S)-5-(4-chloro-2-fluorophenyl)-7-(2-(5-cyclopropyl-1,2,4-oxadiazol-3-yl)morpholino)-2,3-dimethylpyrido[4,3-d]pyrimidin-4(3H)-one]
12 | +++ (Emax>200 and ≤300) | 5.52 to 6.30 | Cc1nc2cc([C@@H]3CCO[C@H](c4cnn(C5CC5)c4)C3)nc(-c3ccc(Cl)cc3F)c2c(=O)n1C (single isomer, unassigned) [Example 166]
13 | ++++ (Emax>300) | 5.52 to 6.30 | CCCn1c(C)nc2cc(N3CCO[C@H](C(F)(F)F)C3)nc(-c3ccc(Cl)cc3F)c2c1=O [Example 180, (S)-5-(4-chloro-2-fluorophenyl)-2-methyl-3-propyl-7-(2-(trifluoromethyl)morpholino)pyrido[4,3-d]pyrimidin-4(3H)-one]
14 | +++ (Emax>200 and ≤300) | 4.00 to 5.52 | Cc1nc2cc(N3CC[C@@H](C(F)F)C3)nc(-c3ccc(Cl)cc3F)c2c(=O)n1C [Example 258, (R)-5-(4-chloro-2-fluorophenyl)-7-(3-(difluoromethyl)pyrrolidin-1-yl)-2,3-dimethylpyrido[4,3-d]pyrimidin-4(3H)-one]
